Laboratory results: US6107292A, “Indenoindoles and benzocarbazoles as estrogenic agents” (American Home Products Corporation, priority 2000, dated 2000)

Legend:
[1] = biological target: T1, human estrogen receptor (Homo sapiens, UniProt P03372); experiment: 2×VIT ERE Infection Assay (luciferase); format: cell-based; details: CHO, 24 h; for Emax at 1 µM: read-out: Infection Luciferase Activity, 1 uM; for activity at 1 µM: read-out: Infection Luciferase Activity, 1 uM + 17β estradiol
T1 construct: expressed in transfected cells; host or cells: Chinese Hamster Ovary (CHO) cells, stably transfected
Experimental: Chinese Hamster Ovary cells (CHO) which had been stably transfected with the human estrogen receptor were maintained in DMEM+10% fetal bovine serum (FBS). 48h prior to treatment the growth medium was replaced with DMEM lacking phenol red+10% dextran coated charcoal stripped FBS (treatment medium). Cells were plated at a density of 5000 cells/well in 96-well plates containing 200 μL of medium/well.
Reporter DNA (Promega plasmid pGL2 containing two tandem copies of the vitellogenin ERE in front of the minimal thymidine kinase promoter driving the luciferase gene) was combined with the B-galactosidase expression plasmid pCH 110 (Pharmacia) and carrier DNA (pTZ18U) in the following ratio:
20 uG of DNA1 mL of transfection solution
The DNA (20uG) was dissolved in 500 uL of 250 mM sterile CaCl2 and added dropwise to 500 uL of 2×HeBS (0.28 M NaCl, 50 mM HEPES, 1.5 mM Na2 HPO4, pH 7.05) and incubated at room temperature for 20 minutes. 20 uL of this mixture was added to each well of cells and remained on the cells for 16 h. […] Each treatment condition was performed on 8 wells (n=8) which were incubated for 24 h prior to the luciferase assay.
After 24 h exposure to compounds, the media was removed and each well washed 2× with 125 uL of PBS lacking Mg^++ and Ca^++. After removing the PBS, 25 uL of Promega lysis buffer was added to each well and allowed to stand at room temperature for 15 min, followed by 15 min at -80° C. and 15 min at 37° C. 20 uL of lysate was transferred to an opaque 96 well plate for luciferase activity evaluation and the remaining lysate (5 uL) was used for the B-galactosidase activity evaluation (normalize transfection). The luciferan substrate (Promega) was added in 100 uL aliquots to each well automatically by the luminometer and the light produced (relative light units) was read 10 seconds after addition.
To the remaining 5 uL of lysate 45 uL of PBS was added. Then 50 uL of Promega B-galactosidase 2× assay buffer was added, mixed well and incubated at 37° C. for 1 hour. A plate containing a standard curve (0.1 to 1.5 milliunits in triplicate) was set up for each experimental run. The plates were analyzed on a Molecular Devices spectrophotometric plate reader at 410 nm. The optical densities for the unknown were converted to milliunits of activity by mathematical extrapolation from the standard curve.
The luciferase data was generated as relative light units (RLUs) accumulated during a 10 second measurement and automatically transferred to a JMP (SAS Inc) file where background RLUs were subtracted. The B-galactosidase values were automatically imported into the file and these values were divided into the RLUs to normalize the data. The mean and standard deviations were determined from a n=8 for each treatment.

[2] = biological target: T2, estrogen receptor (Homo sapiens, UniProt P03372); experiment: In vitro Estrogen Receptor Binding Assay; details: comparison / general statement in words
T2 construct: made in house; host or cells: CHO cells overexpressing the receptor; 100,000 g cytosol
T2 sequence (P03372 1-595): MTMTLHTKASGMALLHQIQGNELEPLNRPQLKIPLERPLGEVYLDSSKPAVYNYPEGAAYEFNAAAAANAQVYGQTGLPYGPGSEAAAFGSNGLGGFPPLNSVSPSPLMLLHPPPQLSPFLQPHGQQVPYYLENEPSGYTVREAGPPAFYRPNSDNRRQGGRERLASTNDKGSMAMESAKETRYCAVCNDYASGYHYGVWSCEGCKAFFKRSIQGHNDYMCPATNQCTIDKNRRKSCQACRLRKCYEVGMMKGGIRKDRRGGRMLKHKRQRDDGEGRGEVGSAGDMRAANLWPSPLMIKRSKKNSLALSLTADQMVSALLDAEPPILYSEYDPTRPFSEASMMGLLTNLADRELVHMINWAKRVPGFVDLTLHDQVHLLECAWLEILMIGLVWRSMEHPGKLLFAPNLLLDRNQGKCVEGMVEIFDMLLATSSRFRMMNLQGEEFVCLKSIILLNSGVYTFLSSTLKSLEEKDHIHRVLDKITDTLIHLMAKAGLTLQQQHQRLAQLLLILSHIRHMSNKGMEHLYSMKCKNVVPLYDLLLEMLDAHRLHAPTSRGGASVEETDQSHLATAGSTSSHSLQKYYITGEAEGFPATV
Experimental: CHO cells overexpressing the estrogen receptor were grown in 150 mm^2 dishes in DMEM+10% dextran coated charcoal, stripped fetal bovine serum. The plates were washed twice with PBS and once with 10 mM Tris-HCl, pH 7.4, 1 mM EDTA. Cells were harvested by scraping the surface and then the cell suspension was placed on ice. Cells were disrupted with a hand-held motorized tissue grinder using two, 10-second bursts. The crude preparation was centrifuged at 12,000 g for 20 minutes followed by a 60 minute spin at 100,000 g to produce a ribosome free cytosol. The cytosol was then frozen and stored at -80° C. Protein concentration of the cytosol was estimated using the BCA assay with reference standard protein.
The competition assay was performed in a 96-well plate (polystyrene*) which binds <2.0% of the total input [^3 H]-17β-estradiol and each data point was gathered in triplicate. 100 uG/100 uL of the receptor preparation was aliquoted per well. A saturating dose of 2.5 nM [^3 H] […] Samples were counted to 2% or 10 minutes, whichever occurs first. […] Also, wells containing radioactivity but no cytosol were processed with charcoal to estimate unremovable DPM of [^3 H] […]
Counts per minute (CPM) of radioactivity were automatically converted to disintegrated per minute (DPM) by the Beckman LS 7500 Scintillation Counter using a set of quenched standards to generate a H# for each sample. […]

[3] = tested on: uterus; details: in vivo; cited from earlier work
[4] = tested on: bone; details: humans; cited from earlier work
[5] = tested on: bone; details: ovariectomized rat; cited from earlier work
[6] = tested on: uterus; details: ovariectomized rat; versus Tamoxifen; cited from earlier work

| Compound | Emax at 1 µM [1] | activity at 1 µM [1] | binding to the ER receptor (in words) [2] | also measured |
| --- | --- | --- | --- | --- |
| COc1ccc2c(c1)Cc1c-2n(Cc2ccc(OCCN3CCCCC3)cc2)c2ccc(O)cc12 [Example 4, 2-Methoxy-5-[4-(2-piperidin-1-yl-ethoxy)-benzyl]-5,10-dihydro-indeno[1,2-b]lindol-8ol] | -2% | 83% | – | – |
| COc1ccc2c(c1)CCc1c-2n(Cc2ccc(OCCN3CCCCC3)cc2)c2ccc(O)cc12 [Example 13, 3-Methoxy-11-[4-(2-piperidin-1-yl-ethoxy)-benzyl]-5,11-dihydro-6H-benzof[a]carbazol-8-ol] | -7% | 1% | bind better to the ER receptor than the indenoindole #6 | – |
| COc1ccc2c(c1)CCc1c-2n(Cc2ccc(OCCN3CCCCCC3)cc2)c2ccc(O)cc12 [Example 14, 11-[4-(2-Azepan-1-yl-ethoxy)-benzyl]-3-methoxy-5,11-dihydro-6H-benzo[a]carbazol-8-ol] | 1% | 8% | bind better to the ER receptor than the indenoindole #6 | – |
| CC/C(=C(\c1ccccc1)c1ccc(OCCN(C)C)cc1)c1ccccc1 [tamoxifen] | – | – | – | agonism in the uterus [3]: partial agonist in the uterus; effect on the bone [4]: estrogen agonist-like effect on the bone |
| O=C(c1ccc(OCCN2CCCCC2)cc1)c1c(-c2ccc(O)cc2)sc2cc(O)ccc12 [Raloxifene] | – | – | – | ability to spare bone / bone mass [5]: maintaining the ability to spare bone; uterine growth [6]: stimulate uterine growth in the ovariectornized rat to a lesser extent than Tamoxifen |
